Tests used:
[1] = tested on: CYNK-1 cell; experiment: Ganciclovir sensitivity of CYNK-1 cell (MTT assay); assay type: cell-based, human; conditions: one-week cultivation with 5 μM of GCV
Text: (§1) Two hundred CYNK-1 cells (deposited with International Patent Organism Depository, National Institute of Advanced Industrial Science and Technology, address: AIST Tsukuba Central 6, 1-1, Higashi 1-Chome, Tsukuba-shi, Ibaraki-ken, 305-8566 Japan, deposited date: Mar. 10, 2004, accession number: FERM BP-08657) were inoculated in a 96-well plate, cultured in CS-C serum free culture medium alone or CS-C serum free culture media containing various concentrations of ganciclovir (5, 10, 20, 50 or 100 μM) and then cell proliferation was investigated by MTT assay (see Mcsmann T. J., Immunol. Methods, 65, 55, 1983).
Cell viability is shown in FIG. 7 as relative sensitivity. Ganciclovir sensitivity of the CYNK-1 cell (deposited with International Patent Organism Depository, National Institute of Advanced Industrial Science and Technology, address: AIST Tsukuba Central 6, 1-1, Higashi 1-Chome Tsukuba-shi, Ibaraki-ken, 305-8566 Japan, deposited date: Mar. 10, 2004, accession number: FERM BP-08657) depends on the concentration of ganciclovir.

[2] = tested on: reverted CYNK-1 cells; experiment: Ganciclovir sensitivity of reverted CYNK-1 cells; assay type: cell-based, human
Text: as §1, with “[…].,” for “Mcsmann T. J.,”, “1983). […] All of the cells died within 10 days.” for “1983).”

Q: How did the “effect on cell proliferation / viability” value [1] turn out when `Nc1nc(O)c2ncn(COC(CO)CO)c2n1` [GCV, ganciclovir] was run?
A: Its value is “stopped cell proliferation and some of the cells died”.

Q: What about the “time until all of the cells died” value ([2]; 5 μM of GCV) of the same molecule?
A: Its value is no more than 10 days.

Q: And the “effect on cell proliferation / viability” value ([2]; one-week cultivation in the presence of 5 μM of GCV)?
A: Its value is “stopped cell proliferation and some of the cells died”.
